This is an account of results in patent US10358434B2, “2-(3-pyridinyl)-1H-benzimidazole derivative compound and medicament containing same” (NIHON MEDI-PHYSICS CO., LTD., priority 2014, dated 2019).

One experiment addresses T1, human CYP11B1 (Homo sapiens, UniProt P15538).
T1 construct: expressed in transfected cells; host or cells: V79 cells (Chinese hamster lung-derived fibroblasts, from ECACC through DS Pharma Biomedical)
T1 sequence (P15538 25-503): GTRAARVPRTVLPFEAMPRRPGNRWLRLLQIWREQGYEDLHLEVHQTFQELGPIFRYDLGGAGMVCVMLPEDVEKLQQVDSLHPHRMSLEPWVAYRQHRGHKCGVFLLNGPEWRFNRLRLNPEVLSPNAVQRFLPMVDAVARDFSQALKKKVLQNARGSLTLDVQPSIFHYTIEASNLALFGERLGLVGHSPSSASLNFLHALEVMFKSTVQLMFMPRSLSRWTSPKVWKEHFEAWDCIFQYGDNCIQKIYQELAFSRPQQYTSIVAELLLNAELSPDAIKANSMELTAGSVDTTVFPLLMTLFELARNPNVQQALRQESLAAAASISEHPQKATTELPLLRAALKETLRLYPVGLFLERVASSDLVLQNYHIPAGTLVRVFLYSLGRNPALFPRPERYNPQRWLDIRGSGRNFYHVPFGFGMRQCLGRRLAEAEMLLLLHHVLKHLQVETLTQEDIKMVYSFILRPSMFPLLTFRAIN
In words: Cortisol production inhibition in V79-B1 cells expressing human CYP11B1 (ELISA). It is filed as cell-based. The conditions noted are these: 11-deoxycortisol 100 nmol/L, 1 hour, cortisol by ELISA, mean or mean ± SD. How it is done:
(§1) This inhibition experiment can be carried out by the following operations. Human CYP11B1 and human CYP11B2 are allowed to individually express in Chinese hamster lung-derived fibroblasts. Subsequently, 11-deoxycortisol is added to the cells expressing human CYP11B1 to a final concentration of 100 nmol/L, and corticosterone is added to the cells expressing human CYP11B2 to a final concentration of 100 nmol/L. At the same time, a target compound used as an analytical sample is added to each of the cells to a final concentration of 10^−4 to 10^4 nmol/L. Thereafter, the concentration of cortisol as a metabolite of CYP11B1 is measured in the cells expressing human CYP11B1 according to ELISA (Enzyme-Linked ImmunoSorbent Assay), and the concentration of aldosterone as a metabolite of CYP11B2 is measured in the cells expressing human CYP11B2 according to ELISA. Provided that the aldosterone concentration and the cortisol concentration without addition of any target compound as a sample are each set at 100%, an inhibition curve is produced, and then inhibitory activity (IC50) is calculated.
(§2) Chinese hamster lung-derived fibroblasts, V79 cells (acquired from ECACC (European Collection of Cell Cultures) through DS Pharma Biomedical), were allowed to express human CYP11B2, so as to produce V79-B2, and were also allowed to express human CYP11B1, so as to produce V79-B1. V79 cells were cultured in a DMEM medium (containing 4,500 mg/L D-glucose, L-glutamine, and 110 mg/L sodium pyruvate; manufactured by Life Technologies). V79-B2 or V79-B1 was inoculated on a microplate, and then cultured overnight. Thereafter, a mixed solution of corticosterone and a compound as a test target was added into a culture supernatant of V79-B2, and a mixed solution of 11-deoxycortisol and a compound as a test target was added into a culture supernatant of V79-B1. As a solvent for these mixed solutions, the aforementioned DMEM medium further containing 0.1 v/v % dimethyl sulfoxide was used. The concentration of corticosterone or 11-deoxycortisol was adjusted to be 100 nmol/L by addition of the solvent. As test target compounds, (R)-4-iodometomidate (IMTO), and Compounds 100, 200, 300, 400, 500, and 601 to 610 synthesized by methods shown in Examples 1, 3, 5, 6, 8, 10, 12, 14, 16, 18, 20, 22, 24, 26, and 28, respectively, were used. The aforementioned mixed solution was prepared such that the concentration of each compound was 10^−4 to 10^4 nmol/L in the mixed solution. One hour later, the culture supernatant of V79-B1 was recovered, and the concentration of cortisol as a metabolite of CYP11B1 was measured by ELISA (Enzyme-Linked ImmunoSorbent Assay). Moreover, four hours later, the culture supernatant of V79-B2 was recovered, and the concentration of aldosterone as a metabolite of CYP11B2 was measured by ELISA. Provided that the concentration of aldosterone or the concentration of cortisol obtained when none of IMTO and Compounds 100, 200, 300, 400 and 500 was added was defined as 100%, an inhibition curve was produced, and the inhibitory activity (IC50) of each compound was then calculated.
(§3) In Tables 5 and 6, the term “Selectivity factor” indicates a quotient of the mean value of IC50 for cortisol production inhibition divided by the mean value of IC50 for aldosterone production inhibition. In addition, the symbol “n” indicates the number of tests.

In the next experiment the target is T2, human CYP11B2 (Homo sapiens, UniProt P19099).
T2 construct: expressed in transfected cells; host or cells: V79 cells (Chinese hamster lung-derived fibroblasts, from ECACC through DS Pharma Biomedical)
T2 sequence (P19099 25-503): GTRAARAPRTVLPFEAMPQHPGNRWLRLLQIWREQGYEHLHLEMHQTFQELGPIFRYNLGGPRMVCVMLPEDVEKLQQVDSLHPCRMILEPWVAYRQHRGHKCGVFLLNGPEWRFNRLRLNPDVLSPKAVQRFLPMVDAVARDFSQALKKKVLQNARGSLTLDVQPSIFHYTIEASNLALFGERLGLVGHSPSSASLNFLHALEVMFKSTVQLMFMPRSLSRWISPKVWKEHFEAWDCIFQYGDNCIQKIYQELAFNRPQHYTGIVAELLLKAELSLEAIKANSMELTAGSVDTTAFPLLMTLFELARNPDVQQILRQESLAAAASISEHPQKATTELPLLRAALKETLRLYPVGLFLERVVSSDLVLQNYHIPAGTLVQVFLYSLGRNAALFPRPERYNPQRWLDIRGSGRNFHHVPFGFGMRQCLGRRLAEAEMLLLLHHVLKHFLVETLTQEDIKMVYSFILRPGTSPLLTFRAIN
In words: Aldosterone production inhibition in V79-B2 cells expressing human CYP11B2 (ELISA). The conditions noted are these: for IC50: V79-B2 cells, corticosterone 100 nmol/L, 4 hours, aldosterone by ELISA, mean or mean ± SD; for Selectivity factor: mean IC50 cortisol production inhibition divided by mean IC50 aldosterone production inhibition. The format is cell-based. The procedure: as §1, §2, §3
For orientation: In an ELISA, binding on a coated surface is turned into a signal by an enzyme label.

Values joined by “and” are separate entries in the source; they are usually repeats but may differ in a detail not shown here. Equal entries are not always repeated.

By IC50 is commonly meant the concentration that gives 50% inhibition. Higher therefore signals a need for much substance.

In turn, `FCCn1c(-c2cncc(Cn3ccnc3)c2)nc2cc(F)c(Cl)cc21` [Compound 100, 6-Chloro-5-fluoro-1-(2-fluoroethyl)-2-[5-(imidazol-1-ylmethyl)pyridin-3-yl]benzimidazole] came in with an IC50 on human CYP11B1 of 109 ± 15.8 nM. On human CYP11B2, this compound came in with a concentration for half-maximal inhibition (IC50) of 6.9 ± 2.87 nM and a Selectivity factor of 15.8.
The like results for `FCCn1c(-c2cncc(Cn3ccnc3)c2)nc2cc(F)c(Br)cc21` [Compound 200, 6-Bromo-5-fluoro-1-(2-fluoroethyl)-2-[5-(imidazol-1-ylmethyl)pyridin-3-yl]benzimidazole] were, in that order, 142 nM, 7.47 nM and 19.0.
On the same counts, the results for `COC(=O)c1cncn1Cc1cncc(-c2nc3cc(F)c(Br)cc3n2CCO)c1` [Compound 300, 2-{6-Bromo-5-fluoro-2-[5-(5-methylcarboxylateimidazol-1-ylmethyl)pyridin-3-yl]benzimidazol-1-yl}ethanol] are 19 nM, 10.6 nM and 1.79.
The like results for `FCCn1c(-c2cncc(Cn3ccnc3)c2)nc2cc(F)c(I)cc21` [Compound 400, 5-Fluoro-1-(2-fluoroethyl)-2-[5-(imidazol-1-ylmethyl)pyridin-3-yl]-6-iodobenzimidazole] were, in that order, 345 nM, 44.5 nM and 7.77.
Take `FCCCn1c(-c2cncc(Cn3ccnc3)c2)nc2cc(F)c(Cl)cc21` [Compound 500, 6-Chloro-5-fluoro-1-(3-fluoropropyl)-2-[5-(imidazol-1-ylmethyl)pyridin-3-yl]benzimidazole]: the IC50 at human CYP11B1 worked out at 33.5 nM. On human CYP11B2, this compound showed a half-inhibitory concentration (IC50) of 3.94 nM and a Selectivity factor of 8.51.
The like results for `Ic1ccc2nc(-c3cncc(Cn4ccnc4)c3)n(C3CC3)c2c1` [Compound 602, 1-Cyclopropyl-2-[3-(1H-imidazol-1-ylmethyl)pyridin-5-yl]-6-iodo-1H-benzimidazole] were, in that order, 44.5 nM, 2.17 nM and 20.5.
On the same counts, the results for `Ic1ccc2nc(-c3cncc(Cn4ccnn4)c3)n(C3CC3)c2c1` [Compound 603, 1-Cyclopropyl-2-[3-(1H-1,2,3-triazol-1-ylmethyl)pyridin-5-yl]-6-iodo-1H-benzimidazole] are 296 nM, 18.1 nM and 16.4.
On to `FCCn1c(-c2cncc(Cn3ccnc3)c2)nc2ccc(I)cc21` [Compound 604, 1-(2-Fluoroethyl)-2-[5-{(imidazol-1-yl)methyl}pyridin-3-yl]-6-iodobenzimidazole], for which the IC50 at human CYP11B1 was 54 nM. At human CYP11B2, this compound had an IC50 of 4.54 nM and a Selectivity factor of 11.9.
Regarding `Fc1cc2nc(-c3cncc(Cn4ccnc4)c3)n(Cc3ccc(I)cc3)c2cc1Cl` [Compound 605, 6-Chloro-5-fluoro-1-(4-iodobenzyl)-2-[5-(1H-imidazol-1-ylmethyl)-3-pyridinyl]-1H-benzimidazole], the concentration for half-maximal inhibition (IC50) on human CYP11B1 was 359 nM; against human CYP11B2 it was 204 nM. The same compound returned a Selectivity factor at human CYP11B2 of 1.76.
The like results for `CC(C)n1c(-c2cncc(Cn3ccnc3)c2)nc2ccc(I)cc21` [Compound 606, 2-[5-{(1H-imidazol-1-yl)methyl}pyridin-3-yl]-6-iodo-1-isopropyl-1H-benzo[d]imidazole] were, in that order, 368 nM, 116 nM and 3.17.
In turn, `Cn1c(-c2cncc(Cn3ccnc3)c2)nc2ccc(I)cc21` [Compound 607, 2-[5-{(1H-imidazol-1-yl)methyl}pyridin-3-yl]-6-iodo-1-methyl-1H-benzo[d]imidazole] had an IC50 against human CYP11B1 of 7.07 nM. Further, on human CYP11B2, the IC50 is 0.93 nM and the Selectivity factor turned out to be 7.62.
On the same counts, the results for `CCn1c(-c2cncc(Cn3ccnc3)c2)nc2ccc(I)cc21` [Compound 608, 2-[5-{(1H-imidazol-1-yl)methyl}pyridin-3-yl]-1-ethyl-6-iodo-1H-benzo[d]imidazole] are 52.2 nM, 6.58 nM and 7.93.
The like results for `COc1cc(I)cc2c1nc(-c1cncc(Cn3ccnc3)c1)n2C1CC1` [Compound 609, 1-Cyclopropyl-2-[5-(imidazol-1-ylmethyl)pyridin-3-yl]-6-iodo-4-methoxybenzimidazole] were, in that order, 15.5 nM, 1.49 nM and 10.4.
On the same counts, the results for `FCCn1c(-c2cncc(Cn3cncc3I)c2)nc2cc(F)c(Cl)cc21` [Compound 610, 6-Chloro-5-fluoro-1-(2-fluoroethyl)-2-{5-(5-iodo-1H-imidazol-1-ylmethyl)pyridin-3-yl}benzimidazole] are 91 nM, 9.81 nM and 9.27.
Consider `COC(=O)c1cncn1[C@H](C)c1ccc(I)cc1` [IMTO, (R)-4-iodometomidate, reference compound], for which, on human CYP11B1, the IC50 is 0.22 nM and 0.25 nM. On human CYP11B2, the IC50 was 0.21 nM and 0.24 nM; the Selectivity factor is 1.01 and 1.03.
At human CYP11B1, “Methyl 1-[4-(1-cyclopropyl-6-iodo-1H-imidazobenzo-2-yl)-3-pyridinylmethyl)]-1H-imidazolecarboxylate [Compound 601]” returned an IC50 of 37.8 nM. Also, at human CYP11B2, inhibition was half-maximal at 3.09 nM (IC50) and the Selectivity factor is listed as 12.2.
